These results are taken from patent publication US5691366A, “Nitro compounds, process for preparation thereof and use thereof” (Fujisawa Pharmaceutical Co., Ltd., priority 1991, dated 1997).

SMILES strings stand for the structures. Where two headings read alike, the source gives them in different places. A value given as a limit tells only on which side of the number the result lay.

For assay [1], the system named is Mean Arterial Blood Pressure in Anesthetized Rats. As to the kind of experiment: Effect on mean arterial blood pressure in anesthetized rats (intravenous). The assay is classed as in vivo, rat (male Sprague-Dawley). Particulars: for inhibition in vivo at 0.1 mg/kg / inhibition in vivo at 0.32 mg/kg / inhibition in vivo at 0.032 mg/kg: Rattus norvegicus, iv, maximal % decrease of mean blood pressure, read-out: Hypotensive effect R max; for Hypotensive effect T 1/2: i.v., time to recover to half of maximal decrease. The protocol:
Male Sprague-Dawley rats, aged 9-12 weeks, were anesthetized with urethane (1.4 g/kg i.p.). A polyethylene cannula filled with heparin solution was inserted into the femoral artery of the rats to measure mean blood pressure. Mean blood pressure was measured with a pressure transducer and recorded on a polygraph. The test compound dissolved in ethanol, polyethylene glycol and distilled water (1:1:2), were administered intraveneously in a volume of 0.25 ml/kg. Intravenous hypothypotensive effects of each compound were expressed as the maximal decrease (R max) and the half time (T 1/2). Briefly, R max was expressed as maximal % change compared to mean blood pressure prior to the administration of compound. T 1/2 was expressed as a time during which the hypotensive effect recovered to half of the maximal decrease.

Assay [2] has as its system thoracic aorta from male Sprague-Dawley rats. The assay is described as follows: Vasodilating activity in vitro (relaxation of norepinephrine-contracted aortic strips). More on the design: species or system rat (male Sprague-Dawley). Conditions: rat aorta helical strips contracted by 3.2×10^-8 g/ml norepinephrine, 37° C. As to the method: The thoracic aorta from male Sprague-Dawley rats, aged 9-11 weeks, were removed and cut into helical strips after removal of excess fat and connective tissues. The strips were mounted vertically in organ baths containing 25 ml Tyrode solution and isometric tension was measured. The tissue bath solution was maintained at 37° C. and bubbled with a 95% O2 and 5% CO2 gas mixture. After the resting tension was adjusted to 0.5 g, the strips were contracted by 3.2×10^-8 g/ml of norepinephrine (NE). The test compound dissolved in ethanol, polyethylene glycol and distilled water (1:1:2) were added to the organ bath cumulatively.
Then, relaxative activity of test compound was expressed as IC50 value i.e. concentration required to inhibit the contraction response by 50%.

The subject of assay [3] is human platelet aggregation. As to the kind of experiment: Inhibition of human platelet aggregation (anti-platelet aggregation activity). The assay is classed as cell-based. Conditions: human PRP, concentration required to inhibit aggregation by 50%, read-out: ED50 (the source's name). The protocol: Inhibitory activity of the nitro compounds of this invention against human platelet aggregation was measured according to the method described below.
Blood was collected from human volunteers. The blood was prevented from coagulation with 1 volume of 3.8% sodium citrate to 9 volumes of blood. Platelet rich plasma (PRP) was prepared by centrifugation of the blood at 1300 rpm for 10 min. at 10° C. The PRP was diluted with platelet poor plasma obtained by further centrifugation of the blood at 3000 rpm for 10 min. The platelet counts in the PRP used for aggregation studies were about 4.0×10^5 platelets/mm^3. Aggregation studies were performed turbidimetrically using NKK HEMATRACER 1. To 225 μl of PRP 25 μl of the test compounds was added and preincubated for 2 min. After preincubation 5 μl of aggregating agents were added to the mixture. Collagen and ADP were used as aggregating agents at the concentrations of 0.5 μg/ml and 2.5 μM, respectively. Activities of the test compounds were expressed as ED50 values i.e. concentrations required to inhibit the platelet aggregation responses by 50%.

The test system of assay [4] is Mean Arterial Blood Pressure in Conscious Rats. The assay is described as follows: Effect on mean arterial blood pressure in conscious rats (oral). The assay is classed as in vivo, rat (male Sprague-Dawley). Particulars: for Hypotensive effect Dur.: time to recover to 5% of maximal decrease; for Hypotensive effect T 1/2: time to recover to half of maximal decrease. The protocol:
Male Sprague-Dawley rats, aged 9-11 weeks, were anesthetized with ether and a polyethylene cannula filled with heparin solution was inserted into the femoral artery of the rats to measure mean blood pressure. Mean blood pressure was measured with a pressure transducer and recorded on a polygraph. Two hours after operation, the drug suspended in 0.5% methyl cellulose was administered orally in a volume of 5 ml/kg. Oral hypotensive effects of each compound were expressed as the maximal decrease (R max), the half time (T 1/2) and the duration (Dur.). Briefly, R max was expressed as maximal % change compared to mean blood pressure prior to the administration of compound. T 1/2 was expressed as a time during which the hypotensive effect recovered to half of the maximal decrease. Duration was expressed as a time during which the hypotensive effect recovered to 5% of the maximal decrease.

The mark [5] stands for this setting: Rattus norvegicus, po, 10 mg/kg, maximal % decrease of mean blood pressure, read-out: Hypotensive effect R max.

For `CCC(=CC(COC(=O)c1cccnc1)=NO)C(C)[N+](=O)[O-]` (single isomer, unassigned) [Example 1 A, 4-ethyl-2-hydroxyimino-5-nitro-3-hexen-1-yl 3-pyridinecarboxylate], the inhibition in vivo at 0.1 mg/kg in assay [1] (0.1 mg/kg) was found to be 21.7%. The inhibition in vivo at 0.32 mg/kg in assay [1] (0.32 mg/kg) worked out at 37%. Also, the IC50 in assay [2] (Rattus norvegicus) worked out at 16 µM.
Regarding `CCC(=CC(COC(=O)c1cccnc1)=NO)C(C)[N+](=O)[O-]` (single isomer, unassigned) [Example 1 B, 4-ethyl-2-hydroxyimino-5-nitro-3-hexen-1-yl 3-pyridinecarboxylate], in assay [1] (0.032 mg/kg), the inhibition in vivo at 0.032 mg/kg is 11.8%. Further, the IC50 in assay [2] came out at 10 µM.
In the case of `CCC(=CC(COC(N)=O)=NO)C(C)[N+](=O)[O-]` (single isomer, unassigned) [Example 2 A, 4-Ethyl-2-hydroxyimino-5-nitro-3-hexen-1-yl carbamate], the IC50 in assay [3] (Homo sapiens, Platelet, Inducer: Collagen 0.5 μg/ml) came out at 4.6 µM; in assay [3] (Inducer: ADP 2.5 μM), 8.6 µM.
`CCC(=CC(COC(N)=O)=NO)C(C)[N+](=O)[O-]` (single isomer, unassigned) [Example 2 B, 4-Ethyl-2-hydroxyimino-5-nitro-3-hexen-1-yl carbamate]: the figures for the IC50 in assay [3] (Inducer: ADP 2.5 μM), in assay [3] (Inducer: Collagen 0.5 μg/ml) and in assay [2] (Rattus norvegicus) were 2.4 µM, 3.6 µM and 11.1 µM, respectively. Also, in assay [1] (0.032 mg/kg), the inhibition in vivo at 0.032 mg/kg was 30.9%. For the same compound, in assay [1] (0.1 mg/kg), the inhibition in vivo at 0.1 mg/kg was found to be 35.4%. In addition, the “Hypotensive effect T 1/2” value worked out at 5.3 min in assay [1] (0.032 mg/kg) and 7.3 min in assay [1] (0.1 mg/kg).
Turning to `CCNC(=O)OCC(C=C(CC)C(C)[N+](=O)[O-])=NO` (single isomer, unassigned) [Example 3 A, 4-Ethyl-2-hydroxyimino-5-nitro-3-hexen-1-yl ethylcarbamate], in assay [1] (0.032 mg/kg), the inhibition in vivo at 0.032 mg/kg came out at 12.6% and the “Hypotensive effect T 1/2” value was 4.8 min. Also, in assay [1] (0.1 mg/kg), the inhibition in vivo at 0.1 mg/kg turned out to be 29.3% and the “Hypotensive effect T 1/2” value is 7.2 min. Besides, the IC50 in assay [2] (Rattus norvegicus) was 18.8 µM.
As to `CCC(=CC(CN1C(=O)c2ccccc2C1=O)=NO)C(C)[N+](=O)[O-]` (single isomer, unassigned) [Example 4 A, N-(4-Ethyl-2-hydroxyimino-5-nitro-3-hexen-1-yl)-phthalimide], in assay [1] (0.1 mg/kg), the inhibition in vivo at 0.1 mg/kg came to 24.6% and the “Hypotensive effect T 1/2” value amounted to 6.7 min. In assay [1] (0.32 mg/kg), the inhibition in vivo at 0.32 mg/kg is 40.8% and the “Hypotensive effect T 1/2” value was 5.1 min. In assay [2] (Rattus norvegicus), this compound showed an IC50 of 1.2 µM.
Take `CCC(=CC(CN1C(=O)c2ccccc2C1=O)=NO)C(C)[N+](=O)[O-]` (single isomer, unassigned) [Example 4 B, N-(4-Ethyl-2-hydroxyimino-5-nitro-3-hexen-1-yl)-phthalimide]: the IC50 in assay [2] was 1.8 µM.
For `CCC(=CC(CNC(C)=O)=NO)C(C)[N+](=O)[O-]` (single isomer, unassigned) [Example 5 B, 1-Acetylamino-4-ethyl-2-hydroxyimino-5-nitro-3-hexene], in assay [1] (0.1 mg/kg), the inhibition in vivo at 0.1 mg/kg turned out to be 34.3% and the “Hypotensive effect T 1/2” value turned out to be 6.2 min. Besides, the IC50 in assay [2] stood at 88.7 µM.
As for `CCC(=CC(CNS(=O)(=O)N(C)C)=NO)C(C)[N+](=O)[O-]` (single isomer, unassigned) [Example 7 A, N,N-Dimethyl-N'-(4-ethyl-2-hydroxyimino-5-nitro-3-hexen-1-yl)sulfamide], in assay [1] (0.1 mg/kg), the inhibition in vivo at 0.1 mg/kg worked out at 31.7% and the “Hypotensive effect T 1/2” value was 7.6 min. For the same compound, in assay [1] (0.32 mg/kg), the inhibition in vivo at 0.32 mg/kg came out at 42.1% and the “Hypotensive effect T 1/2” value was found to be 5.1 min. In assay [2] (Rattus norvegicus), the IC50 was 10.7 µM.
Regarding `CCC(=CC(CNS(=O)(=O)N(C)C)=NO)C(C)[N+](=O)[O-]` (single isomer, unassigned) [Example 7 B, N,N-Dimethyl-N'-(4-ethyl-2-hydroxyimino-5-nitro-3-hexen-1-yl)sulfamide], the “Hypotensive effect T 1/2” value in assay [1] (0.1 mg/kg) worked out at 6.6 min. In addition, the IC50 in assay [2] worked out at 19.4 µM.
As for `CCC(=CC(CSc1nnnn1C)=NO)C(C)[N+](=O)[O-]` (single isomer, unassigned) [Example 12 A, 1-Methyl-5-(4-ethyl-2-hydroxyimino-5-nitro-3-hexen-1-yl)thiotetrazole], the IC50 in assay [3] (Homo sapiens, Platelet, Inducer: ADP 2.5 μM) stood at 1.1 µM. In assay [1] (0.032 mg/kg), the inhibition in vivo at 0.032 mg/kg amounted to 16.7% and the “Hypotensive effect T 1/2” value was determined as 7.4 min. Moreover, in assay [1] (0.1 mg/kg), the inhibition in vivo at 0.1 mg/kg amounted to 37.7% and the “Hypotensive effect T 1/2” value is 5.9 min. For the same compound, the IC50 in assay [2] (Rattus norvegicus) worked out at 4.9 µM.
Take `CCC(=CC(CSc1nnnn1C)=NO)C(C)[N+](=O)[O-]` (single isomer, unassigned) [Example 12 B, 1-Methyl-5-(4-ethyl-2-hydroxyimino-5-nitro-3-hexen-1-yl)thiotetrazole]: the results for the IC50 in assay [3] (Inducer: ADP 2.5 μM) and in assay [2] were 1.7 µM and 5 µM, respectively.
As to `CCC(=CC(CSc1nc2ccccc2s1)=NO)C(C)[N+](=O)[O-]` (single isomer, unassigned) [Example 14 B, 2-(4-Ethyl-2-hydroxyimino-5-nitro-3-hexen-1-yl)thio-benzothiazole], in assay [1] (0.032 mg/kg), the inhibition in vivo at 0.032 mg/kg was 4.7%. In addition, the inhibition in vivo at 0.1 mg/kg in assay [1] (0.1 mg/kg) amounted to 33.9%. In addition, the IC50 in assay [2] (Rattus norvegicus) was 0.11 µM.
Consider `CCC(=CC(CNC(=O)c1ccncc1)=NO)C(C)[N+](=O)[O-]` (stereo not drawn) [Example 29, N-(4-Ethyl-2-hydroxyimino-5-nitro-3-hexen-1-yl)-4-pyridinecarboxamide], for which, in assay [1] (0.32 mg/kg), the inhibition in vivo at 0.32 mg/kg was 35% and the “Hypotensive effect T 1/2” value was determined as 12.3 min. Moreover, in assay [4] (10 mg/kg), the “Hypotensive effect Dur.” value amounted to 72.5 min and the “Hypotensive effect T 1/2” value turned out to be 23.5 min. Also, in assay [4] (32 mg/kg), the “Hypotensive effect Dur.” value was above 300 min and the “Hypotensive effect T 1/2” value came out at 165 min. In addition, the inhibition in vivo at 10 mg/kg in assay [4] (setting [5]) amounted to 31.4%. Moreover, the inhibition in vivo at 32 mg/kg in assay [4] (Rattus norvegicus, po, 32 mg/kg, maximal % decrease of mean blood pressure, read-out: Hypotensive effect R max) amounted to 37.1%.
Regarding `CCC(=CC(CNC(=O)c1cccnc1Cl)=NO)C(C)[N+](=O)[O-]` (stereo not drawn) [Example 32, N-(4-Ethyl-2-hydroxyimino-5-nitro-3-hexen-1-yl)-2-chloro-3-pyridinecarboxamide], in assay [1] (0.32 mg/kg), the inhibition in vivo at 0.32 mg/kg was 42.5% and the “Hypotensive effect T 1/2” value turned out to be 13.6 min. In addition, in assay [4] (10 mg/kg), the “Hypotensive effect Dur.” value amounted to 50.9 min and the “Hypotensive effect T 1/2” value was found to be 19.6 min. In addition, the inhibition in vivo at 10 mg/kg in assay [4] (setting [5]) worked out at 43.2%.
In the case of `CCC(=CC(CNC(=O)c1ccc(C)nc1)=NO)C(C)[N+](=O)[O-]` (stereo not drawn) [Example 35, N-(4-Ethyl-2-hydroxyimino-5-nitro-3-hexen-1-yl)-6-methyl-3-pyridinecarboxamide], in assay [1] (0.32 mg/kg), the inhibition in vivo at 0.32 mg/kg came to 41.7% and the “Hypotensive effect T 1/2” value was determined as 13.7 min. Further, the “Hypotensive effect T 1/2” value in assay [4] (10 mg/kg) worked out at 24.1 min. Also, the inhibition in vivo at 10 mg/kg in assay [4] (setting [5]) was 31.1%.
